Test results reported in US9376425B2, “Heterocyclic compounds as MDM2 inhibitors for the treatment of cancer” (AMGEN INC., priority 2011, dated 2016).

These compounds were tested against T1, human MDM2 (GST-hMDM2 1-188), interaction with biotinylated-p53 (1-83) (Homo sapiens, UniProt Q00987) (assay: improved HTRF assay (HTRF2 assay), inhibition of HDM2-p53 interaction). Settings: 0.2 nM GST-hMDM2, 0.5 nM biotinylated-p53, 100 mM KF.
T1 construct: Amino acid residues 1-188 of human MDM2 were expressed; made in house; host or cells: Escherichia coli
Type: binding
Method in brief: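 Time-resolved fluorescence (HTRF) read after >4 h equilibration with SA-XLent/anti-GST cryptate/KF detection reagents. Reaction: compound plus GST-hMDM2 for 20 min at room temperature, then E. coli-expressed biotinylated p53 residues 1-83 for 60 min, 2% DMSO final. Inhibition expressed versus nutlin-3.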

T1 sequence (Q00987 1-188): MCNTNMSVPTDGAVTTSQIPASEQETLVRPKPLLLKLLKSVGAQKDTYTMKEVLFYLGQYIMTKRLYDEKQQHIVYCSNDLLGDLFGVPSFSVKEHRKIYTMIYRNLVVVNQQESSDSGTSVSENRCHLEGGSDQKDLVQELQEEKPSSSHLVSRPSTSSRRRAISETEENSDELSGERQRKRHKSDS

Row | SMILES | IC50 [nM]
1 | CC[C@@H](CS(=O)(=O)N1CCC[C@@H]1C)N1C(=O)[C@@H](CC(=O)O)O[C@H](c2cccc(Cl)c2)[C@H]1c1ccc(Cl)cc1 (single isomer, unassigned) [Example 209, 2-((2R,5R,6R)-6-(3-chlorophenyl)-5-(4-chlorophenyl)-4-((S)-1-(((S)-2-methylpyrrolidin-1-yl)sulfonyl)butan-2-yl)-3-oxomorpholin-2-yl)acetic acid or 2-((2S,5R,6R)-6-(3-chlorophenyl)-5-(4-chlorophenyl)-4-((S)-1-(((S)-2-methylpyrrolidin-1-yl)sulfonyl)butan-2-yl)-3-oxomorpholin-2-yl)acetic acid] | 7
2 | CC[C@@H](CS(=O)(=O)N1CCC[C@H]1C)N1C(=O)[C@@H](CC(=O)O)O[C@H](c2cccc(Cl)c2)[C@H]1c1ccc(Cl)cc1 (single isomer, unassigned) [Example 210, 2-((2R,5R,6R)-6-(3-chlorophenyl)-5-(4-chlorophenyl)-4-((S)-1-(((R)-2-methylpyrrolidin-1-yl)sulfonyl)butan-2-yl)-3-oxomorpholin-2-yl)acetic acid or 2-((2S,5R,6R)-6-(3-chlorophenyl)-5-(4-chlorophenyl)-4-((S)-1-(((R)-2-methylpyrrolidin-1-yl)sulfonyl)butan-2-yl)-3-oxomorpholin-2-yl)acetic acid] | 1
3 | CC[C@@H](CS(=O)(=O)N1CCC[C@H]1C)N1C(=O)[C@@H](CC(=O)O)O[C@H](c2cccc(Cl)c2)[C@H]1c1ccc(Cl)cc1 (single isomer, unassigned) [Example 211, 2-((2R,5R,6R)-6-(3-chlorophenyl)-5-(4-chlorophenyl)-4-((S)-1-(((R)-2-methylpyrrolidin-1-yl)sulfonyl)butan-2-yl)-3-oxomorpholin-2-yl)acetic acid or 2-((2S,5R,6R)-6-(3-chlorophenyl)-5-(4-chlorophenyl)-4-((S)-1-(((R)-2-methylpyrrolidin-1-yl)sulfonyl)butan-2-yl)-3-oxomorpholin-2-yl)acetic acid] | 4
4 | CC[C@@H](CS(=O)(=O)C1CC1)N1C(=O)[C@@H](CC(=O)O)O[C@H](c2cccc(Cl)c2)[C@H]1c1ccc(Cl)cc1 (single isomer, unassigned) [Example 212, 2-((2R,5R,6R)-6-(3-chlorophenyl)-5-(4-chlorophenyl)-4-((S)-1-(cyclopropylsulfonyl)butan-2-yl)-3-oxomorpholin-2-yl)acetic acid or 2-((2S,5R,6R)-6-(3-chlorophenyl)-5-(4-chlorophenyl)-4-((S)-1-(cyclopropylsulfonyl)butan-2-yl)-3-oxomorpholin-2-yl)acetic acid] | 2
5 | CC[C@@H](CS(=O)(=O)C1CC1)N1C(=O)[C@@H](CC(=O)O)O[C@H](c2cccc(Cl)c2)[C@H]1c1ccc(Cl)cc1 (single isomer, unassigned) [Example 213, 2-((2R,5R,6R)-6-(3-chlorophenyl)-5-(4-chlorophenyl)-4-((S)-1-(cyclopropylsulfonyl)butan-2-yl)-3-oxomorpholin-2-yl)acetic acid or 2-((2S,5R,6R)-6-(3-chlorophenyl)-5-(4-chlorophenyl)-4-((S)-1-(cyclopropylsulfonyl)butan-2-yl)-3-oxomorpholin-2-yl)acetic acid] | 5
6 | CC[C@@H](CN(c1ccccc1F)S(=O)(=O)C1CC1)N1C(=O)[C@@H](CC(=O)O)O[C@H](c2cccc(Cl)c2)[C@H]1c1ccc(Cl)s1 (single isomer, unassigned) [Example 216, 2-((2R,5S,6R)-6-(3-chlorophenyl)-5-(5-chlorothiophen-2-yl)-4-((S)-1-(N-(2-fluorophenyl)cyclopropanesulfonamido)butan-2-yl)-3-oxomorpholin-2-yl)acetic acid or 2-((2S,5S,6R)-6-(3-chlorophenyl)-5-(5-chlorothiophen-2-yl)-4-((S)-1-(N-(2-fluorophenyl)cyclopropanesulfonamido)butan-2-yl)-3-oxomorpholin-2-yl)acetic acid] | < 1
7 | CC[C@@H](CN(c1ccccc1F)S(=O)(=O)C1CC1)N1C(=O)[C@@H](CC(=O)O)O[C@H](c2cccc(Cl)c2)[C@H]1c1ccc(Cl)s1 (single isomer, unassigned) [Example 217, 2-((2R,5S,6R)-6-(3-chlorophenyl)-5-(5-chlorothiophen-2-yl)-4-((S)-1-(N-(2-fluorophenyl)cyclopropanesulfonamido)butan-2-yl)-3-oxomorpholin-2-yl)acetic acid or 2-((2S,5S,6R)-6-(3-chlorophenyl)-5-(5-chlorothiophen-2-yl)-4-((S)-1-(N-(2-fluorophenyl)cyclopropanesulfonamido)butan-2-yl)-3-oxomorpholin-2-yl)acetic acid] | < 1
8 | CC[C@@H](CS(=O)(=O)C(C)(C)C)N1C(=O)[C@@H](CC(=O)O)O[C@H](c2cccc(Cl)c2)[C@H]1c1ccc(Cl)s1 (single isomer, unassigned) [Example 218, 2-((2R,5S,6R)-4-((S)-1-(tert-butylsulfonyl)butan-2-yl)-6-(3-chlorophenyl)-5-(5-chlorothiophen-2-yl)-3-oxomorpholin-2-yl)acetic acid or 2-((2S,5S,6R)-4-((S)-1-(tert-butylsulfonyl)butan-2-yl)-6-(3-chlorophenyl)-5-(5-chlorothiophen-2-yl)-3-oxomorpholin-2-yl)acetic acid] | 1
9 | CC[C@@H](CS(=O)(=O)C(C)(C)C)N1C(=O)[C@@H](CC(=O)O)O[C@H](c2cccc(Cl)c2)[C@H]1c1ccc(Cl)s1 (single isomer, unassigned) [Example 219, 2-((2R,5S,6R)-4-((S)-1-(tert-butylsulfonyl)butan-2-yl)-6-(3-chlorophenyl)-5-(5-chlorothiophen-2-yl)-3-oxomorpholin-2-yl)acetic acid or 2-((2S,5S,6R)-4-((S)-1-(tert-butylsulfonyl)butan-2-yl)-6-(3-chlorophenyl)-5-(5-chlorothiophen-2-yl)-3-oxomorpholin-2-yl)acetic acid] | 1
10 | CC[C@@H](CCS(=O)(=O)C(C)(C)C)N1C(=O)[C@@H](CC(=O)O)O[C@H](c2cccc(Cl)c2)[C@H]1c1ccc(Cl)cc1 (single isomer, unassigned) [Example 220, 2-((2R,5R,6R)-4-((S)-1-(tert-butylsulfonyl)pentan-3-yl)-6-(3-chlorophenyl)-5-(4-chlorophenyl)-3-oxomorpholin-2-yl)acetic acid or 2-((2S,5R,6R)-4-((S)-1-(tert-butylsulfonyl)pentan-3-yl)-6-(3-chlorophenyl)-5-(4-chlorophenyl)-3-oxomorpholin-2-yl)acetic acid] | 9
11 | CC[C@@H](CCS(=O)(=O)C(C)(C)C)N1C(=O)[C@@H](CC(=O)O)O[C@H](c2cccc(Cl)c2)[C@H]1c1ccc(Cl)cc1 (single isomer, unassigned) [Example 221, 2-((2R,5R,6R)-4-((S)-1-(tert-butylsulfonyl)pentan-3-yl)-6-(3-chlorophenyl)-5-(4-chlorophenyl)-3-oxomorpholin-2-yl)acetic acid or 2-((2S,5R,6R)-4-((S)-1-(tert-butylsulfonyl)pentan-3-yl)-6-(3-chlorophenyl)-5-(4-chlorophenyl)-3-oxomorpholin-2-yl)acetic acid] | 12
12 | C[C@@H](CS(=O)(=O)C(C)(C)C)N1C(=O)[C@@H](CC(N)=O)O[C@H](c2cccc(Cl)c2)[C@H]1c1ccc(Cl)cc1 (single isomer, unassigned) [Example 225, 2-((2R,5R,6R)-4-((S)-1-(tert-butylsulfonyl)propan-2-yl)-6-(3-chlorophenyl)-5-(4-chlorophenyl)-3-oxomorpholin-2-yl)acetamide or 2-((2S,5R,6R)-4-((S)-1-(tert-butylsulfonyl)propan-2-yl)-6-(3-chlorophenyl)-5-(4-chlorophenyl)-3-oxomorpholin-2-yl)acetamide] | 6
13 | C[C@@H](CS(=O)(=O)C(C)(C)C)N1C(=O)[C@H](CC(N)=O)O[C@H](c2cccc(Cl)c2)[C@H]1c1ccc(Cl)cc1 (single isomer, unassigned) [Example 226, 2-((2S,5R,6R)-4-((S)-1-(tert-butylsulfonyl)propan-2-yl)-6-(3-chlorophenyl)-5-(4-chlorophenyl)-3-oxomorpholin-2-yl)acetamide or 2-((2R,5R,6R)-4-((S)-1-(tert-butylsulfonyl)propan-2-yl)-6-(3-chlorophenyl)-5-(4-chlorophenyl)-3-oxomorpholin-2-yl)acetamide] | 11
14 | CNC(=O)C[C@@H]1O[C@H](c2cccc(Cl)c2)[C@@H](c2ccc(Cl)cc2)N([C@@H](C)CS(=O)(=O)C(C)(C)C)C1=O (single isomer, unassigned) [Example 227, 2-((2S,5R,6R)-4-((S)-1-(tert-butylsulfonyl)propan-2-yl)-6-(3-chlorophenyl)-5-(4-chlorophenyl)-3-oxomorpholin-2-yl)-N-methylacetamide or 2-((2R,5R,6R)-4-((S)-1-(tert-butylsulfonyl)propan-2-yl)-6-(3-chlorophenyl)-5-(4-chlorophenyl)-3-oxomorpholin-2-yl)-N-methylacetamide] | 11
15 | CNC(=O)C[C@H]1O[C@H](c2cccc(Cl)c2)[C@@H](c2ccc(Cl)cc2)N([C@@H](C)CS(=O)(=O)C(C)(C)C)C1=O (single isomer, unassigned) [Example 228, 2-((2R,5R,6R)-4-((S)-1-(tert-butylsulfonyl)propan-2-yl)-6-(3-chlorophenyl)-5-(4-chlorophenyl)-3-oxomorpholin-2-yl)-N-methylacetamide or 2-((2S,5R,6R)-4-((S)-1-(tert-butylsulfonyl)propan-2-yl)-6-(3-chlorophenyl)-5-(4-chlorophenyl)-3-oxomorpholin-2-yl)-N-methylacetamide] | 14
